Positions count from the first letter of the chain named.
Legend:
[1] = target: T1, HEK-293 cells expressing a G810S mutant RET Kif5b-RET fusion protein (Homo sapiens, UniProt P07949, G810S); assay: RET G810S Mutant Cell Assay (phospho-RET Tyr1062); type: cell-based; conditions: HEK-293 Kif5b-RET G810S, 1 hour incubation, phospho-RET normalized to GAPDH
T1 construct: KIF5B (N-terminal portion incl. coiled-coil); expressed in transfected cells; host or cells: HEK-293
T1 sequence (P07949 713-1063 G810S limits assumed): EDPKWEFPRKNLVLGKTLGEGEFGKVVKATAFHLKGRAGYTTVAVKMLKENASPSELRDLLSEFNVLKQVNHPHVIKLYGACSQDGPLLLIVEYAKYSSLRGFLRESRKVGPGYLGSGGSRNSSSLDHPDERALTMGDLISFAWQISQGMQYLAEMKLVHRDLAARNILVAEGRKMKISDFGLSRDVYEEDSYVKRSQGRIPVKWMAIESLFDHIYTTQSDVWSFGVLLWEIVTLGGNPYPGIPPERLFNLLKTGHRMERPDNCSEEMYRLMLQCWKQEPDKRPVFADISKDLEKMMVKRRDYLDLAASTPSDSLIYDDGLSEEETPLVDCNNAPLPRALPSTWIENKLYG
Protocol: (§1) The cellular potency of compounds inhibiting RET kinase were determined in HEK-293 cells expressing a G810R or G810S mutant RET Kif5b-RET fusion protein. Briefly, HEK-293 cells expressing a G810R or G810S mutant RET Kif5b-RET fusion protein were plated at 50K cells/well in 96 well poly-D-Lysine coated plates the day prior to the assay. The cells were incubated for 1 hour with test compound in DMEM (Dulbecco's Modified Eagle Medium) at a final DMSO concentration of 0.5%. […] After 1 hour the media was removed, the cells were fixed with 3.8% formaldehyde for 20 min, washed with PBS, and permeabilized for 10 min with 100% methanol. The plates were then washed with PBS-0.05% Tween20, and blocked with LI-COR Blocking solution (LI-COR Catalog No. 927-40000) for 1 hour. Plates were washed with PBS-0.05% Tween20, then incubated with anti-phospho-RET (Tyr1062) (Santa Cruz Catalog No. sc-20252-R) antibody and anti-GAPDH (Millipore Catalog No. MAB374) antibody for 2 hours. The plates were washed with PBS-0.05% Tween20, and incubated with anti-rabbit 680 (Molecular Probes Catalog No. A21109) and anti-mouse 800 (LI-COR Catalog No. 926-32210) secondary antibodies for 1 hour. All antibodies were diluted in LI-COR Block containing 0.05% Tween. The plates were washed with PBS-0.05% Tween20,100 μL PBS was added to each well, and the plates were read on a LI-COR Aerius fluorescent plate reader. The phospho-RET signal was normalized to the GAPDH signal. […] The POC values are fit to a 4 parameter logistic curve. The IC50 value is the point where the curve crosses 50 POC.

RET kinase Wild Type = RET kinase Wild Type (Homo sapiens, UniProt P07949); assay: biochemical;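 note: HTRF kinase activity assay on RET enzyme, 1 h reaction at 22 °C, dual-wavelength readout as percent of control, DMSO-only wells as 100%, pre-quenched reactions as 0%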
Sequence of RET kinase Wild Type (P07949 29-1114): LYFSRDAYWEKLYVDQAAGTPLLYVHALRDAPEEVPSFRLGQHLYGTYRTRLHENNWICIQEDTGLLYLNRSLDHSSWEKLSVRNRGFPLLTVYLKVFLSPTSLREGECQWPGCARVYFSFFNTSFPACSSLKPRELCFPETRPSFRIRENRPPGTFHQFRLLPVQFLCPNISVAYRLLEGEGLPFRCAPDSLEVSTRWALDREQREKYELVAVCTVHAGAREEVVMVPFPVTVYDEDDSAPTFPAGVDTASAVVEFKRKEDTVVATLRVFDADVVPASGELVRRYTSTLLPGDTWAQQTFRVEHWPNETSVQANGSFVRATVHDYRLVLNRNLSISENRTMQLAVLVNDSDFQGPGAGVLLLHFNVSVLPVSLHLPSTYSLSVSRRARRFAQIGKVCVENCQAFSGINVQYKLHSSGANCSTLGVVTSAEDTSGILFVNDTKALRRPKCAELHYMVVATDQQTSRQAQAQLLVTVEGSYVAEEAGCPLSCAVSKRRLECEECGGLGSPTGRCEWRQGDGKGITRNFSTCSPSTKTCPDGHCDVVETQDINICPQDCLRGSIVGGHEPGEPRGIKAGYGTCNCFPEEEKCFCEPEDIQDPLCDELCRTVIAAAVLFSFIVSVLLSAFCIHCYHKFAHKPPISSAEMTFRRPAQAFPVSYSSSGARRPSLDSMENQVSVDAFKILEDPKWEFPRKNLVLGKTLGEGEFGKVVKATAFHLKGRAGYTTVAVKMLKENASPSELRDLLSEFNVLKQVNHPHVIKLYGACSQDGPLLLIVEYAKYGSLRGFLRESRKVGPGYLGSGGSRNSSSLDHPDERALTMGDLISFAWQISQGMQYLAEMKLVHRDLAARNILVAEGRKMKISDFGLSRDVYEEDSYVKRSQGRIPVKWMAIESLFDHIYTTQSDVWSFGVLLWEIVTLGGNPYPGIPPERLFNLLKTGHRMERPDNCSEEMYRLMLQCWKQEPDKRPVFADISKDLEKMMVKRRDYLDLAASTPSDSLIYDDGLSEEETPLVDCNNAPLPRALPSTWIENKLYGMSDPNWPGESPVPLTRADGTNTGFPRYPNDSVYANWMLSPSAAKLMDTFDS

RET kinase V804M = RET kinase V804M (Homo sapiens, UniProt P07949, V804M); assay: RET Enzyme Assay (CisBio HTRF KinEASE-TK), V804M; type: biochemical; conditions: read-out: RET V804M Enz FRET IC50
Sequence of RET kinase V804M (P07949 29-1114 V804M): as the sequence (P07949 29-1114) above, with V776M counted along it
Protocol: (§2) The potency of compounds inhibiting several different RET kinase forms (Wild Type, V804M, G810R, & G810S) were determined using CisBio's HTRF® KinEASE™-TK assay technology. […] After a 1 hour incubation at 22° C., the extent of reaction was determined using a PerkinElmer EnVision multimode plate reader via HTRF dual wavelength detection, and the percent of control (POC) was calculated using a ratiometric emission factor. One hundred POC was determined using DMSO only samples (no compound present), and 0 POC was determined using pre-quenched control reactions.

G810S mutant RET kinase = G810S mutant RET kinase (Homo sapiens, UniProt P07949, G810S); assay: biochemical;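 note: HTRF KinEASE-TK kinase assay with recombinant enzyme, 1 h at 22 °C, dual-wavelength ratiometric read-out, percent of control (DMSO-only = 100, pre-quenched reaction = 0)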
Sequence of G810S mutant RET kinase (P07949 29-1114 G810S): as the sequence (P07949 29-1114) above, with G782S counted along it

G810R mutant RET kinase = G810R mutant RET kinase (Homo sapiens, UniProt P07949, G810R); assay: biochemical;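 note: HTRF KinEASE-TK enzymatic assay with 1 nM recombinant RET G810R, 1 h at 22 °C, dual-wavelength ratiometric readout, 100% control without compound, 0% from pre-quenched reactions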
Sequence of G810R mutant RET kinase (P07949 29-1114 G810R): as the sequence (P07949 29-1114) above, with G782R counted along it
Protocol: as §2
The potency of a compound inhibiting G810R or G810S mutant RET kinase was determined using CisBio's HTRF® KinEASE™-TK assay technology. The assays contained G810R or G810S mutant RET produced at Array Biopharma, Inc. (1 nM enzyme). […] After a 1-h incubation at 22° C., the extent of reaction was determined using a PerkinElmer EnVision multimode plate reader via HTRF dual wavelength detection, and the percent of control (POC) was calculated using a ratiometric emission factor. One hundred POC was determined using no test compounds, and 0 POC was determined using pre-quenched control reactions.

[2] = target: T2, HEK-293 cells expressing a Kif5b-RET fusion protein (Homo sapiens, UniProt P07949); assay: RET Cell Assay (phospho-RET Tyr1062); type: cell-based; conditions: HEK-293 Kif5b-RET, 1 hour incubation, phospho-RET normalized to GAPDH; read-out: KIF5B-RET pTYR1062 Cell IC50
T2 construct: KIF5B (N-terminal portion incl. coiled-coil); expressed in transfected cells; host or cells: HEK-293; the other entry of the earlier key: KIF5B (P33176, Kinesin-1 heavy chain)
T2 sequence (P07949 713-1063 limits assumed): T1 sequence (P07949 713-1063 G810S limits assumed) with S98G
Protocol: as §1, with “a” for “a G810R or G810S mutant RET”, “PBS is” for “PBS was”, “values were” for “values are”

| Compound | IC50 [1] | IC50 (RET kinase Wild Type) | IC50 (RET kinase V804M) | IC50 (G810S mutant RET kinase) | IC50 (G810R mutant RET kinase) | IC50 [2] |
| --- | --- | --- | --- | --- | --- | --- |
| COC(=O)c1ccc(-n2c3c(c4c(N)ncnc42)-c2noc(C4CC4)c2C(O)CC3)cc1 (stereo not drawn) [Example 113, Methyl 4-(11-amino-3-cyclopropyl-4-hydroxy-5,6-dihydroisoxazolo[4″,3″:6′,7′]cyclohepta[1′,2′:4,5]pyrrolo[2,3-d]pyrimidin-7(4H)-yl)benzoate 2,2,2-trifluoroacetate] | 274 nM | 102 nM | 169 nM | 63 nM | 106 nM | 513 nM |
| Nc1ncnc2c1c1c(n2C2CCC(O)C2)CCC(=O)c2c-1noc2C1CC1 (mixture of isomers) [Example 128, 11-Amino-3-cyclopropyl-7-(3-hydroxycyclopentyl)-6,7-dihydroisoxazolo[4″,3″:6′,7′]cyclohepta[1′,2′:4,5]pyrrolo[2,3-d]pyrimidin-4(5H)-one 2,2,2-trifluoroacetate] | 435 nM | 88 nM | 349 nM | 160 nM | 98 nM | 157 nM |
| COC(=O)[C@H]1C[C@@H](n2c3c(c4c(N)ncnc42)-c2noc(C4CC4)c2C(O)CC3)C1 (stereo partly drawn) [Example 137, Methyl (1s,3s)-3-(11-amino-3-cyclopropyl-4-hydroxy-5,6-dihydroisoxazolo[4″,3″:6′,7′]cyclohepta[1′,2′:4,5]pyrrolo[2,3-d]pyrimidin-7(4H)-yl)cyclobutane-1-carboxylate 2,2,2-trifluoroacetate] | 280 nM | 38 nM | 60 nM | 155 nM | 52 nM | 67 nM |
| Nc1ncnc2c1c1c(n2C2CCOC2)CCC(O)c2c-1noc2C1CC1 (stereo not drawn) [Example 121, 11-amino-3-cyclopropyl-7-(tetrahydrofuran-3-yl)-4,5,6,7-tetrahydro-isoxazolo[4″,3″:6′,7′]cyclohepta[1′,2′:4,5] pyrrolo[2,3-d]pyrimidin-4-ol] | 118 nM | 41 nM | 120 nM | 84 nM | 87 nM | 74 nM |
| Nc1ncnc2c1c1c(n2C2CCC2)CCC(O)c2c-1noc2C1CC1 (stereo not drawn) [Example 144, 11-Amino-7-cyclobutyl-3-cyclopropyl-4,5,6,7-tetrahydroisoxazolo[4″,3″:6′,7]cyclohepta[1′,2′:4,5]pyrrolo[2,3-d]pyrimidin-4-ol 2,2,2-trifluoroacetate] | 177 nM | 24 nM | 57 nM | 101 nM | 61 nM | 40 nM |
| Nc1ncnc2c1c1c(n2[C@@H]2C[C@@H](O)[C@@H](O)C2)CCC(O)c2c-1noc2C1CC1 (stereo partly drawn) [Example 130, (1r,2s,4s)-4-(11-amino-3-cyclopropyl-4-hydroxy-5,6-dihydroisoxazolo[4″,3″:6′,7′]cyclohepta[1′,2′:4,5]pyrrolo[2,3-d]pyrimidin-7(4H)-yl)cyclopentane-1,2-diol] | 131 nM | 12 nM | 64 nM | 32 nM | 40 nM | 34 nM |

More lines, in order of falling IC50 [1], values ahead:

| IC50 [1] | IC50 (RET kinase Wild Type) | IC50 (RET kinase V804M) | IC50 (G810S mutant RET kinase) | IC50 (G810R mutant RET kinase) | IC50 [2] | Compound |
| --- | --- | --- | --- | --- | --- | --- |
| 103 nM | 45 nM | 152 nM | 229 nM | 150 nM | 54 nM | Nc1ncnc2c1c1c(n2[C@H]2C[C@H](CO)C2)CCC(O)c2c-1noc2C1CC1 (stereo partly drawn) [Example 135, 11-Amino-3-cyclopropyl-7-((1r,3r)-3-(hydroxymethyl)cyclobutyl)-4,5,6,7-tetrahydroisoxazolo[4″,3″:6′,7′]cyclohepta[1′,2′:4,5]pyrrolo[2,3-d]pyrimidin-4-ol 2,2,2-trifluoroacetate] |
| 86 nM | 128 nM | 483 nM | 183 nM | 760 nM | 35 nM | CC(C)n1c2c(c3c(N)ncnc31)-c1c(Cl)c3ccc(C(=O)NC4CC4)cc3n1CCC2 [Example 102, 1-Amino-14-chloro-N-cyclopropyl-5-isopropyl-5,6,7,8-tetrahydropyrimido[5″,4″:4′,5′]pyrrolo[3′,2′:3,4]azepino[1,2-a]indole-11-carboxamide] |
| 77 nM | 14 nM | 38 nM | 26 nM | 28 nM | 31 nM | Nc1ncnc2c1c1c(n2C(CF)CF)CCC(O)c2c-1noc2C1CC1 (stereo not drawn) [Example 122, 11-amino-3-cyclopropyl-7-(1,3-difluoropropan-2-yl)-4,5,6,7-tetrahydro-isoxazolo[4″,3″:6′,7′]cyclohepta[1′,2′:4,5] pyrrolo[2,3-d]pyrimidin-4-ol] |
| 20 nM | 7 nM | 22 nM | 41 nM | 70 nM | 2 nM | CC1(n2c3c(c4c(N)ncnc42)-c2noc(C4CC4)c2C(O)CC3)CC1 (stereo not drawn) [Example 149, 11-Amino-3-cyclopropyl-7-(1-methylcyclopropyl)-4,5,6,7-tetrahydroisoxazolo[4″,3″:6′,7′]cyclohepta[1′,2′:4,5]pyrrolo[2,3-d]pyrimidin-4-ol] |
| 15 nM | 233 nM | 2860 nM | 914 nM | 1610 nM | 10 nM | CC(C)n1c2c(c3c(N)ncnc31)-c1cc3ccc(C(=O)Nc4ccn(-c5ccccc5)n4)cc3n1CCC2 [Example 100, 1-amino-5-isopropyl-N-(1-phenyl-1H-pyrazol-3-yl)-5,6,7,8-tetrahydropyrimido[5″,4″:4′,5′]pyrrolo[3′,2′: 3,4]azepino[1,2-a]indole-11-carboxamide] |
